# Data taken from patent US20260242390A1, “TOTAL SYNTHESES OF PORTIMINE A AND ANALOGUES THEREOF AS SMALL MOLECULE MODULATORS OF NMD3” (priority 2023, published 2026).
# Test system: Jurkat cells
# Experiment: Immunoblot of caspase 3 in Jurkat cells
# Type: cell-based, human
# Settings: for cell apoptosis / Caspase 3 activation: Jurkat 5M per well, 2 nM-1000 nM, 12 hours; for cell apoptosis, immunoblot of caspase 3: Jurkat cells, 12 hours at 10 nM; for caspase-3 cleavage in Jurkat cells: dose-dependent, immunoblot
# Text: FIG. 1. Portimine A is non-toxic to primary human PBMCs. Portimine A and its functional analogs show stereo-selective acute toxicity in cancer cells. […] (B) Structure of portimine related analogs: phenyl-portimine A (Ph-PA, 36) and epi-portimine A (ePA, 38). Structure of fully functionalized portimine A-based epimeric probe pair: portimine A-diazirine-alkyne (PA-DA, 35-2) and epi-portimine A-diazirine-alkyne (ePA-DA, 35-1). (C) Cell viability analysis of portimine A and analogs. Jurkat cells were treated with increasing concentrations of portimine A and analogs for 24 hours. All presented data as mean of biological replicated experiments (n=3). […] Jurkat cells were treated with portimine A or analogs for 12 hours at 10 nM.
# FIG. 3. Initial SAR studies: Assessing activity of PAL functionalized PTMA analogs. […] (A) PA and Ph-PA show less toxic to healthy PBMCs compared to Jurkat cells. […] (B) Immunoblot of caspase-3 in Jurkat and PBMCs with indicated conditions.
# FIG. 5. […] (I, J) Confirmation of PA-DA engagement of NMD3 in Jurkat and HCC1806 cells. […] Treatment condition: Jurkat (5M per well). Portimine A concentration: 2 nM-1000 nM; In total treat cell for 12 hours.
# • 1) Portimine A and its functional analogs show stereo-selective acute toxicity in cancer cells (FIG. 1). […] (B) Structure of portimine related analogs: phenyl-portimine A (Ph-PA, 36) and epi-portimine A (ePA, 38). Structure of fully functionalized portimine A-based epimeric probe pair: portimine A-diazirine-alkyne (PA-DA, 35-2) and epi-portimine A-diazirine-alkyne (ePA-DA, 35-1). (C) Cell viability analysis of portimine A and analogs. Jurkat cells were treated with increasing concentrations of portimine A and analogs for 24 hours. All presented data as mean of biological replicated experiments (n=3). […] Jurkat cells were treated with portimine A or analogs for 12 hours at 10 nM. […] Structurally related negative control ePA and PB are non-toxic in all cell types in the current concentrate range. PBMCs (25k per well), Jurkat (10k per well). […] Cell cycle analysis in Jurkat cells (FIG. 2). Jurkat cells were treated with 10 nM of indicated compounds for 24 hours, and propodium iodide was used to identify different stages of cells by flow cytometry. […] (A) PA and Ph-PA show less toxic to healthy PBMCs compared to Jurkat cells. […] (B) Immunoblot of caspase-3 in Jurkat and PBMCs with indicated conditions. […] (A) Pharmacokinetic studies of mouse intraperitoneal (i.p.) and oral (p.o.) administration for portimine (n=3). […] Impact of PA [0.3 or 1 mg/kg intraperitoneally] on MC38 tumor growth in WT mice (n=6). (C) Kaplan-Myer survival curve of WT MC38 tumor-bearing mice (n=6) after treatment with PA as described in (D). Mice were euthanized when tumor area exceeded 2000 mm^3. Statistical analysis was performed using ANOVA analysis followed by multiple comparisons test, * p≤0.05. Treatment condition: Jurkat (60 M per condition); PA-DA/ePA-DA concentration: 0.5 uM, PA or ePA: 5 uM; Incubate with probe with or without competitors (PA, ePA) for 30 min; UV irradiated for 20 min. (0.5 uM PA-DA add a no-UV condition), Standard pulldown & biotin-enrichment and western blot analysis (Elute condition: 2× sample buffer+500 uM biotin, boil for 20 mins); Primary antibody NMD3 (ProteinTech, 1:150), Actin (BioRad, 1:10000). […] Chemical proteomic profiling with PA-DA in Jurkat cells (A, B, C, G) and HCC1806 cells (D, E, F, H) show NMD3 is the primary target candidate of portimine A. Volcano plot in panels A and D show protein competition in cells treated with active photoaffinity probe PA-DA (500 nM) and DMSO or the active competitor portimine A (PA, […]), dotted lines indicate threshold of fold change <4, p-value>0.05. […] (I, J) Confirmation of PA-DA engagement of NMD3 in Jurkat and HCC1806 cells. […] Treatment condition: Jurkat (5M per well). Portimine A concentration: 2 nM-1000 nM; In total treat cell for 12 hours. […] Protein degradation of p53, Mcl1, Bid, Bim, Noxa can be rescued by MG132 or Epoxomicin. […]
SMILES,cell apoptosis / Caspase 3 activation,"cell apoptosis, immunoblot of caspase 3",caspase-3 cleavage in Jurkat cells
"C=CC1=C[C@@H]2[C@@H]3O[C@]4(CC[C@H](O4)C(C)C[C@@H](O)C3=O)CC(O)C3=NCC[C@@]32CC1 (stereo partly shown) [PA, portimine A]",causes cell apoptosis in dose-dependent manner,induce cell apoptosis,induced caspase-3 cleavage in a dose-dependent manner
"C=CC1=C[C@@H]2[C@@H]3O[C@]4(CC[C@H](O4)C(C)C[C@@H](O)C3=O)C[C@@H](O)C3=NCC[C@@]32CC1 (stereo partly drawn) [ePA, epi-portimine A]",does not show significant Caspase 3 activation,do not,
"C=CC1=C[C@@H]2[C@@H]3OC4(CC[C@H](O4)C(C)C[C@@H](O)C3=O)CC(=O)C3=NCC[C@@]32CC1 (stereo partly shown) [PB, portimine B]",,do not,
"CC1C[C@@H](O)C(=O)[C@H]2O[C@]3(CC[C@@H]1O3)CC(O)C1=NCC[C@@]13CCC(c1ccccc1)=C[C@H]23 (stereo partly shown) [Ph-PA, phenyl-portimine A]",,induce cell apoptosis,
"C#CCCC1(CCNC(=O)c2ccc(C3=C[C@@H]4[C@@H]5O[C@]6(CC[C@H](O6)C(C)C[C@@H](O)C5=O)C[C@@H](O)C5=NCC[C@@]54CC3)cc2)N=N1 (stereo partly drawn) [ePA-DA, epi-portimine A-diazirine-alkyne]",,do not,
"C#CCCC1(CCNC(=O)c2ccc(C3=C[C@@H]4[C@@H]5O[C@]6(CC[C@H](O6)C(C)C[C@@H](O)C5=O)CC(O)C5=NCC[C@@]54CC3)cc2)N=N1 (stereo partly shown) [PA-DA, portimine A-diazirine-alkyne]",,induce cell apoptosis,induced caspase-3 cleavage in a dose-dependent manner
